Assay results as given in the supplement of paper PMC8882468.

What follows are molecules tested on HCI-012 (organoid from a breast cancer xenograft) (assay: CTG-3D luminescence at 96 h relative to day-0 seeding control (ratio to day 0); higher = more growth / less cytotoxicity; PDxO 3D drug screen, 96 h, CTG-3D normalised to day-0 seeding control.). Conditions: 0.005 µM; days in culture: 201.
In the case of `C[C@@H]1COCCN1c1cc(C2([S@](C)(=N)=O)CC2)nc(-c2cc[nH]c3nccc2-3)n1` [ceralasertib], the “CTG-3D luminescence at 96 h” value is reported as 1.56. With `CCN1CCN(Cc2ccc(Nc3ncc(F)c(-c4cc(F)c5nc(C)n(C(C)C)c5c4)n3)nc2)CC1` [abemaciclib] the “CTG-3D luminescence at 96 h” value was 1.75. With `NC1(C(=O)N[C@@H](CCO)c2ccc(Cl)cc2)CCN(c2nc[nH]c3nccc2-3)CC1` [capivasertib] the “CTG-3D luminescence at 96 h” value was 1.59. For `CC(C)n1nc(-c2ccc3oc(N)nc3c2)c2c(N)ncnc21` [sapanisertib], the “CTG-3D luminescence at 96 h” value was 1.89. For `O=C(c1ccc(F)c(F)c1Nc1ccc(I)cc1F)N1CC(O)([C@@H]2CCCCN2)C1` [cobimetinib], the “CTG-3D luminescence at 96 h” value was 1.69. With `C[C@H](NC(=O)CCC(F)(F)F)C(=O)N[C@@H]1C(=O)N(CCO)c2ncccc2-c2ccccc21` [crenigacestat] the “CTG-3D luminescence at 96 h” value was 1.82. For `Cc1cc(Nc2ncc(Cl)c(Nc3ccccc3S(=O)(=O)C(C)C)n2)c(OC(C)C)cc1C1CCNCC1` [ceritinib], the “CTG-3D luminescence at 96 h” value was 1.57. With `CS(=O)(=O)c1ccc(C(=O)Nc2ccc(Cl)c(-c3ccccn3)c2)c(Cl)c1` [vismodegib] the “CTG-3D luminescence at 96 h” value was 1.72. `NC(=O)c1cccc2cn(-c3ccc([C@@H]4CCCNC4)cc3)nc12` [niraparib] was tested, and the “CTG-3D luminescence at 96 h” value was 1.89.

Same assay, conditions: 0.1 µM; days in culture: 143
`C[C@@H]1COCCN1c1cc(C2([S@](C)(=N)=O)CC2)nc(-c2cc[nH]c3nccc2-3)n1` [ceralasertib] was tested, and the “CTG-3D luminescence at 96 h” value was 2.14. With `CCN1CCN(Cc2ccc(Nc3ncc(F)c(-c4cc(F)c5nc(C)n(C(C)C)c5c4)n3)nc2)CC1` [abemaciclib] the “CTG-3D luminescence at 96 h” value was 2.72. For `NC1(C(=O)N[C@@H](CCO)c2ccc(Cl)cc2)CCN(c2nc[nH]c3nccc2-3)CC1` [capivasertib], the “CTG-3D luminescence at 96 h” value was 2.01. With `CC(C)n1nc(-c2ccc3oc(N)nc3c2)c2c(N)ncnc21` [sapanisertib] the “CTG-3D luminescence at 96 h” value was 1.06. `O=C(c1ccc(F)c(F)c1Nc1ccc(I)cc1F)N1CC(O)([C@@H]2CCCCN2)C1` [cobimetinib] was tested, and the “CTG-3D luminescence at 96 h” value was 1.87. With `C[C@H](NC(=O)CCC(F)(F)F)C(=O)N[C@@H]1C(=O)N(CCO)c2ncccc2-c2ccccc21` [crenigacestat] the “CTG-3D luminescence at 96 h” value was 2.49. With `Cc1cc(Nc2ncc(Cl)c(Nc3ccccc3S(=O)(=O)C(C)C)n2)c(OC(C)C)cc1C1CCNCC1` [ceritinib] the “CTG-3D luminescence at 96 h” value was 2.08. `CS(=O)(=O)c1ccc(C(=O)Nc2ccc(Cl)c(-c3ccccn3)c2)c(Cl)c1` [vismodegib] was tested, and the “CTG-3D luminescence at 96 h” value was 2.49. In the case of `NC(=O)c1cccc2cn(-c3ccc([C@@H]4CCCNC4)cc3)nc12` [niraparib], the “CTG-3D luminescence at 96 h” value is reported as 2.56.

Same assay, conditions: 0.1 µM; days in culture: 162
For `C[C@@H]1COCCN1c1cc(C2([S@](C)(=N)=O)CC2)nc(-c2cc[nH]c3nccc2-3)n1` [ceralasertib], the “CTG-3D luminescence at 96 h” value was 3.14. With `CCN1CCN(Cc2ccc(Nc3ncc(F)c(-c4cc(F)c5nc(C)n(C(C)C)c5c4)n3)nc2)CC1` [abemaciclib] the “CTG-3D luminescence at 96 h” value was 3.34. `NC1(C(=O)N[C@@H](CCO)c2ccc(Cl)cc2)CCN(c2nc[nH]c3nccc2-3)CC1` [capivasertib] was tested, and the “CTG-3D luminescence at 96 h” value was 2.92. With `CC(C)n1nc(-c2ccc3oc(N)nc3c2)c2c(N)ncnc21` [sapanisertib] the “CTG-3D luminescence at 96 h” value was 1.27. With `O=C(c1ccc(F)c(F)c1Nc1ccc(I)cc1F)N1CC(O)([C@@H]2CCCCN2)C1` [cobimetinib] the “CTG-3D luminescence at 96 h” value was 2.85. With `C[C@H](NC(=O)CCC(F)(F)F)C(=O)N[C@@H]1C(=O)N(CCO)c2ncccc2-c2ccccc21` [crenigacestat] the “CTG-3D luminescence at 96 h” value was 2.93. For `Cc1cc(Nc2ncc(Cl)c(Nc3ccccc3S(=O)(=O)C(C)C)n2)c(OC(C)C)cc1C1CCNCC1` [ceritinib], the “CTG-3D luminescence at 96 h” value was 2.9. With `CS(=O)(=O)c1ccc(C(=O)Nc2ccc(Cl)c(-c3ccccn3)c2)c(Cl)c1` [vismodegib] the “CTG-3D luminescence at 96 h” value was 2.88. In the case of `NC(=O)c1cccc2cn(-c3ccc([C@@H]4CCCNC4)cc3)nc12` [niraparib], the “CTG-3D luminescence at 96 h” value is reported as 2.6.

Same assay, conditions: 0.1 µM; days in culture: 201
In the case of `C[C@@H]1COCCN1c1cc(C2([S@](C)(=N)=O)CC2)nc(-c2cc[nH]c3nccc2-3)n1` [ceralasertib], the “CTG-3D luminescence at 96 h” value is reported as 1.68. `CCN1CCN(Cc2ccc(Nc3ncc(F)c(-c4cc(F)c5nc(C)n(C(C)C)c5c4)n3)nc2)CC1` [abemaciclib] was tested, and the “CTG-3D luminescence at 96 h” value was 1.73. For `NC1(C(=O)N[C@@H](CCO)c2ccc(Cl)cc2)CCN(c2nc[nH]c3nccc2-3)CC1` [capivasertib], the “CTG-3D luminescence at 96 h” value was 1.5. In the case of `CC(C)n1nc(-c2ccc3oc(N)nc3c2)c2c(N)ncnc21` [sapanisertib], the “CTG-3D luminescence at 96 h” value is reported as 0.938. With `O=C(c1ccc(F)c(F)c1Nc1ccc(I)cc1F)N1CC(O)([C@@H]2CCCCN2)C1` [cobimetinib] the “CTG-3D luminescence at 96 h” value was 1.91. For `C[C@H](NC(=O)CCC(F)(F)F)C(=O)N[C@@H]1C(=O)N(CCO)c2ncccc2-c2ccccc21` [crenigacestat], the “CTG-3D luminescence at 96 h” value was 1.75. `Cc1cc(Nc2ncc(Cl)c(Nc3ccccc3S(=O)(=O)C(C)C)n2)c(OC(C)C)cc1C1CCNCC1` [ceritinib] was tested, and the “CTG-3D luminescence at 96 h” value was 1.57. `CS(=O)(=O)c1ccc(C(=O)Nc2ccc(Cl)c(-c3ccccn3)c2)c(Cl)c1` [vismodegib] was tested, and the “CTG-3D luminescence at 96 h” value was 1.56. `NC(=O)c1cccc2cn(-c3ccc([C@@H]4CCCNC4)cc3)nc12` [niraparib] was tested, and the “CTG-3D luminescence at 96 h” value was 1.81.

Same assay, conditions: 1 µM; days in culture: 143
In the case of `C[C@@H]1COCCN1c1cc(C2([S@](C)(=N)=O)CC2)nc(-c2cc[nH]c3nccc2-3)n1` [ceralasertib], the “CTG-3D luminescence at 96 h” value is reported as 1.8. With `CCN1CCN(Cc2ccc(Nc3ncc(F)c(-c4cc(F)c5nc(C)n(C(C)C)c5c4)n3)nc2)CC1` [abemaciclib] the “CTG-3D luminescence at 96 h” value was 1.59. `NC1(C(=O)N[C@@H](CCO)c2ccc(Cl)cc2)CCN(c2nc[nH]c3nccc2-3)CC1` [capivasertib] was tested, and the “CTG-3D luminescence at 96 h” value was 1.55. `CC(C)n1nc(-c2ccc3oc(N)nc3c2)c2c(N)ncnc21` [sapanisertib] was tested, and the “CTG-3D luminescence at 96 h” value was 0.799. For `O=C(c1ccc(F)c(F)c1Nc1ccc(I)cc1F)N1CC(O)([C@@H]2CCCCN2)C1` [cobimetinib], the “CTG-3D luminescence at 96 h” value was 1.57. `C[C@H](NC(=O)CCC(F)(F)F)C(=O)N[C@@H]1C(=O)N(CCO)c2ncccc2-c2ccccc21` [crenigacestat] was tested, and the “CTG-3D luminescence at 96 h” value was 2.07. With `Cc1cc(Nc2ncc(Cl)c(Nc3ccccc3S(=O)(=O)C(C)C)n2)c(OC(C)C)cc1C1CCNCC1` [ceritinib] the “CTG-3D luminescence at 96 h” value was 1.92. `CS(=O)(=O)c1ccc(C(=O)Nc2ccc(Cl)c(-c3ccccn3)c2)c(Cl)c1` [vismodegib] was tested, and the “CTG-3D luminescence at 96 h” value was 2.42. In the case of `NC(=O)c1cccc2cn(-c3ccc([C@@H]4CCCNC4)cc3)nc12` [niraparib], the “CTG-3D luminescence at 96 h” value is reported as 1.52.

Same assay, conditions: 1 µM; days in culture: 162
For `C[C@@H]1COCCN1c1cc(C2([S@](C)(=N)=O)CC2)nc(-c2cc[nH]c3nccc2-3)n1` [ceralasertib], the “CTG-3D luminescence at 96 h” value was 1.92. For `CCN1CCN(Cc2ccc(Nc3ncc(F)c(-c4cc(F)c5nc(C)n(C(C)C)c5c4)n3)nc2)CC1` [abemaciclib], the “CTG-3D luminescence at 96 h” value was 1.83. `NC1(C(=O)N[C@@H](CCO)c2ccc(Cl)cc2)CCN(c2nc[nH]c3nccc2-3)CC1` [capivasertib] was tested, and the “CTG-3D luminescence at 96 h” value was 1.51. `CC(C)n1nc(-c2ccc3oc(N)nc3c2)c2c(N)ncnc21` [sapanisertib] was tested, and the “CTG-3D luminescence at 96 h” value was 0.748. With `O=C(c1ccc(F)c(F)c1Nc1ccc(I)cc1F)N1CC(O)([C@@H]2CCCCN2)C1` [cobimetinib] the “CTG-3D luminescence at 96 h” value was 1.59. For `C[C@H](NC(=O)CCC(F)(F)F)C(=O)N[C@@H]1C(=O)N(CCO)c2ncccc2-c2ccccc21` [crenigacestat], the “CTG-3D luminescence at 96 h” value was 1.87. In the case of `Cc1cc(Nc2ncc(Cl)c(Nc3ccccc3S(=O)(=O)C(C)C)n2)c(OC(C)C)cc1C1CCNCC1` [ceritinib], the “CTG-3D luminescence at 96 h” value is reported as 2.19. For `CS(=O)(=O)c1ccc(C(=O)Nc2ccc(Cl)c(-c3ccccn3)c2)c(Cl)c1` [vismodegib], the “CTG-3D luminescence at 96 h” value was 2.4. For `NC(=O)c1cccc2cn(-c3ccc([C@@H]4CCCNC4)cc3)nc12` [niraparib], the “CTG-3D luminescence at 96 h” value was 0.841.

Same assay, conditions: 1 µM; days in culture: 201
`C[C@@H]1COCCN1c1cc(C2([S@](C)(=N)=O)CC2)nc(-c2cc[nH]c3nccc2-3)n1` [ceralasertib] was tested, and the “CTG-3D luminescence at 96 h” value was 2.3. `CCN1CCN(Cc2ccc(Nc3ncc(F)c(-c4cc(F)c5nc(C)n(C(C)C)c5c4)n3)nc2)CC1` [abemaciclib] was tested, and the “CTG-3D luminescence at 96 h” value was 2.31. With `NC1(C(=O)N[C@@H](CCO)c2ccc(Cl)cc2)CCN(c2nc[nH]c3nccc2-3)CC1` [capivasertib] the “CTG-3D luminescence at 96 h” value was 1.61. In the case of `CC(C)n1nc(-c2ccc3oc(N)nc3c2)c2c(N)ncnc21` [sapanisertib], the “CTG-3D luminescence at 96 h” value is reported as 1.37. In the case of `O=C(c1ccc(F)c(F)c1Nc1ccc(I)cc1F)N1CC(O)([C@@H]2CCCCN2)C1` [cobimetinib], the “CTG-3D luminescence at 96 h” value is reported as 2.24. `C[C@H](NC(=O)CCC(F)(F)F)C(=O)N[C@@H]1C(=O)N(CCO)c2ncccc2-c2ccccc21` [crenigacestat] was tested, and the “CTG-3D luminescence at 96 h” value was 2.3. With `Cc1cc(Nc2ncc(Cl)c(Nc3ccccc3S(=O)(=O)C(C)C)n2)c(OC(C)C)cc1C1CCNCC1` [ceritinib] the “CTG-3D luminescence at 96 h” value was 2.44. For `CS(=O)(=O)c1ccc(C(=O)Nc2ccc(Cl)c(-c3ccccn3)c2)c(Cl)c1` [vismodegib], the “CTG-3D luminescence at 96 h” value was 2.33. In the case of `NC(=O)c1cccc2cn(-c3ccc([C@@H]4CCCNC4)cc3)nc12` [niraparib], the “CTG-3D luminescence at 96 h” value is reported as 1.95.

Same assay, conditions: 10 µM; days in culture: 143
`C[C@@H]1COCCN1c1cc(C2([S@](C)(=N)=O)CC2)nc(-c2cc[nH]c3nccc2-3)n1` [ceralasertib] was tested, and the “CTG-3D luminescence at 96 h” value was 0.748. `CCN1CCN(Cc2ccc(Nc3ncc(F)c(-c4cc(F)c5nc(C)n(C(C)C)c5c4)n3)nc2)CC1` [abemaciclib] was tested, and the “CTG-3D luminescence at 96 h” value was 0.427. For `NC1(C(=O)N[C@@H](CCO)c2ccc(Cl)cc2)CCN(c2nc[nH]c3nccc2-3)CC1` [capivasertib], the “CTG-3D luminescence at 96 h” value was 0.931. `CC(C)n1nc(-c2ccc3oc(N)nc3c2)c2c(N)ncnc21` [sapanisertib] was tested, and the “CTG-3D luminescence at 96 h” value was 0.586. With `O=C(c1ccc(F)c(F)c1Nc1ccc(I)cc1F)N1CC(O)([C@@H]2CCCCN2)C1` [cobimetinib] the “CTG-3D luminescence at 96 h” value was 0.758. `C[C@H](NC(=O)CCC(F)(F)F)C(=O)N[C@@H]1C(=O)N(CCO)c2ncccc2-c2ccccc21` [crenigacestat] was tested, and the “CTG-3D luminescence at 96 h” value was 2.78. `Cc1cc(Nc2ncc(Cl)c(Nc3ccccc3S(=O)(=O)C(C)C)n2)c(OC(C)C)cc1C1CCNCC1` [ceritinib] was tested, and the “CTG-3D luminescence at 96 h” value was 0.0093. With `CS(=O)(=O)c1ccc(C(=O)Nc2ccc(Cl)c(-c3ccccn3)c2)c(Cl)c1` [vismodegib] the “CTG-3D luminescence at 96 h” value was 2.55. With `NC(=O)c1cccc2cn(-c3ccc([C@@H]4CCCNC4)cc3)nc12` [niraparib] the “CTG-3D luminescence at 96 h” value was 0.467.
